Results taken from US10155021B2, “Antimicrobial 4-oxoquinolizines” (Emergent Product Development Gaithersburg Inc., priority 2011, dated 2018).
In brackets after ≈: the same amount, converted by molar mass. Read-outs that look alike come from different tables or passages of the source.

Columns and labels:
A. baumannii A401 [1] = assay: MIC without and with sub-inhibitory polymyxin B (Example 4); format: cell-based, Acinetobacter baumannii; conditions: for MIC: Acinetobacter baumannii, A401, A baumannii A 401, without polymyxin B, read-out: MIC without PB
A. baumannii A329 [2] = assay: Preliminary MBC without and with sub-inhibitory polymyxin B (Example 4); format: cell-based, Acinetobacter baumannii; conditions: Acinetobacter baumannii, A329, A. baumannii A329, without polymyxin B, read-out: MBC without PB
A. baumannii A401 [3] = assay: as above; format: cell-based, Acinetobacter baumannii; conditions: Acinetobacter baumannii, A401, A baumannii A 401, without polymyxin B, preliminary MBC, read-out: MBC without PB
A. baumannii A472 [4] = assay: MIC without and with sub-inhibitory polymyxin B (Example 4); format: cell-based, Acinetobacter baumannii; conditions: for MIC: Acinetobacter baumannii, A472, A. baumannii A472, without polymyxin B, read-out: MIC without PB
E. coli CTX-M-15 = assay: MIC, panel of quinolone-resistant strains (CLSI); format: cell-based; conditions: Escherichia coli, CTXM15; CIP R, ESBL
Pseudomonas ssp PER-1 = assay: MIC, panel of quinolone-resistant strains (CLSI); format: cell-based, Pseudomonas spp; conditions: PER1, CIP R, ESBL
A. baumannii A489 [5] = assay: Preliminary MBC without and with sub-inhibitory polymyxin B (Example 4); format: cell-based, Acinetobacter baumannii; conditions: Acinetobacter baumannii, A489, A. baumannii A489, without polymyxin B, read-out: MBC without PB
[6] = system: Acinetobacter sp. (H064200250); assay: as above; format: cell-based; conditions: Acinetobacter, without polymyxin B, preliminary MBC, read-out: MBC without PB
How it was run: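 Read-out: the minimum concentration at which colonies were reduced by ca. 90% relative to positive control, usually seen as isolated colonies or a clear plate. Plates had been kept 18-20 hours at 37° C beforehand.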

A. baumannii A 401 = assay: MIC determination for Acinetobacter strains (Example 3); format: cell-based; conditions: A401, LEV R, CIP R, AMK R, TET R
[7] = system: resistant strains of A. baumannii and one strain of Acinetobacter sp.; assay: MIC without and with sub-inhibitory polymyxin B, whole panel / MIC ranges (Example 4; also strains not listed separately); format: cell-based; conditions: Acinetobacter baumannii
A. baumannii A489 [8] = assay: MIC without and with sub-inhibitory polymyxin B (Example 4); format: cell-based, Acinetobacter baumannii; conditions: Acinetobacter baumannii, A489, A. baumannii A489, without polymyxin B, read-out: MIC without PB
A. baumannii A472 [9] = assay: Preliminary MBC without and with sub-inhibitory polymyxin B (Example 4); format: cell-based, Acinetobacter baumannii; conditions: Acinetobacter baumannii, A472, A. baumannii A472, without polymyxin B, 2nd experiment, read-out: MBC without PB
[10] = system: Acinetobacter spp. H064200250; assay: MIC determination for Acinetobacter strains (Example 3); format: cell-based, Acinetobacter sp.; conditions: LEV R, CIP R, MRP R, IMP I
P. aeruginosa 1388-3-02 = assay: MIC, panel of quinolone-resistant strains (CLSI); format: cell-based; conditions: Pseudomonas aeruginosa, 1388302; CIP R, POL R
E. coli 2906 = assay: MIC, panel of quinolone-resistant strains (CLSI); format: cell-based; conditions: Escherichia coli, CIP R
Klebsiella ssp KPC-3 = assay: MIC, panel of quinolone-resistant strains (CLSI); format: cell-based, Klebsiella spp; conditions: KPC3, CIP R, ESBL
P. aeruginosa 143-3-03 = assay: MIC, panel of quinolone-resistant strains (CLSI); format: cell-based; conditions: Pseudomonas aeruginosa, 143303; CIP I, POL R
[11] = system: Acinetobacter sp. (H064200250); assay: MIC without and with sub-inhibitory polymyxin B (Example 4); format: cell-based; conditions: Acinetobacter, without polymyxin B
A. baumannii A329 [12] = assay: MIC determination for Acinetobacter strains (Example 3); format: cell-based; conditions: LEV R, CIP R, MRP R, IMP R, AMK R, TET R
A. baumannii A390 = assay: Preliminary MBC without and with sub-inhibitory polymyxin B (Example 4); format: cell-based, Acinetobacter baumannii; conditions: Acinetobacter baumannii, A390, A. baumannii A390; without polymyxin B; 2nd experiment; preliminary MBC; read-out: MBC without PB
A. baumannii A473 [13] = assay: as above; format: cell-based, Acinetobacter baumannii; conditions: Acinetobacter baumannii, A473, A. baumannii A473, without polymyxin B, read-out: MBC without PB
A. baumannii A473 [14] = assay: MIC without and with sub-inhibitory polymyxin B (Example 4); format: cell-based, Acinetobacter baumannii; conditions: Acinetobacter baumannii, A473, A. baumannii A473, without polymyxin B, read-out: MIC without PB
A. baumannii A472 [15] = assay: MIC determination for Acinetobacter strains (Example 3); format: cell-based; conditions: LEV R, CIP R, MRP I, IMP I, AMK R, TET R
A. baumannii J2 = assay: MIC without and with sub-inhibitory polymyxin B (Example 4); format: cell-based, Acinetobacter baumannii; conditions: Acinetobacter baumannii, J2, A. baumannii J2, without polymyxin B, read-out: MIC without PB
[16] = Acinetobacter spp. H064200250 (OXA51), 2nd experiment
[17] = Acinetobacter spp. H064200250, 1st experiment
[18] = Acinetobacter spp. H064200250 (OXA51), 2nd experiment, visual reading, read-out: MIC without PB
[19] = Acinetobacter spp. H064200250, 1st experiment, read-out: MIC without PB

Structure (SMILES): Cc1c(-c2ccc(CN)c(F)c2)ccn2c(=O)c(C(=O)O)cc(C3CC3)c12 [Compound 4, 8-(3-fluoro-4-aminomethyl-phenyl)-1-cyclopropyl-9-methyl-4-oxo-quinolizine-3-carboxylic acid]
- MIC (A. baumannii A401 [1]; 1st experiment): 16 µg/mL (≈ 43.7 µM)
- MIC (A. baumannii A401 [1]; 2nd experiment, visual reading): 16 µg/mL (≈ 43.7 µM)
- MBC (A. baumannii A329 [2]; 1st experiment): 16 µg/mL (≈ 43.7 µM)
- MBC (A. baumannii A329 [2]; 2nd experiment): 32 µg/mL (≈ 87.3 µM)
- MBC (A. baumannii A401 [3]; 2nd experiment): 32 µg/mL (≈ 87.3 µM)
- MBC (A. baumannii A401 [3]; 1st experiment): 4 µg/mL (≈ 10.9 µM)
- MIC (A. baumannii A472 [4]; 2nd experiment, visual reading): 16 µg/mL (≈ 43.7 µM)
- MIC (E. coli CTX-M-15): 16 µg/mL (≈ 43.7 µM)
- MIC (Pseudomonas ssp PER-1): 8 µg/mL (≈ 21.8 µM)
- MBC (A. baumannii A489 [5]; 1st experiment): 4 µg/mL (≈ 10.9 µM)
- MBC (A. baumannii A489 [5]; 2nd experiment): 16 µg/mL (≈ 43.7 µM)
- MBC [6, 16]: 32 µg/mL (≈ 87.3 µM)
- MBC [6, 17]: 16 µg/mL (≈ 43.7 µM)
- MIC (A. baumannii A 401): 16 µg/mL (≈ 43.7 µM)
- MIC ([7]; read-out: MIC range without PB 01-10-2008 n = 8, without polymyxin B, 1st experiment, 8 strains): 2 to 32 µg/mL (≈ 5.46 to 87.3 µM)
- MIC ([7]; without polymyxin B, 2nd experiment, 11 strains, read-out: MIC range without PB 14-10-2008 n = 11): 4 to 16 µg/mL (≈ 10.9 to 43.7 µM)
- MIC (A. baumannii A489 [8]; 2nd experiment, visual reading): 16 µg/mL (≈ 43.7 µM)
- MBC (A. baumannii A472 [9]): 16 µg/mL (≈ 43.7 µM)
- MIC [10]: 16 µg/mL (≈ 43.7 µM)
- MIC (P. aeruginosa 1388-3-02): 16 µg/mL (≈ 43.7 µM)
- MIC (E. coli 2906): 8 µg/mL (≈ 21.8 µM)
- MIC (Klebsiella ssp KPC-3): 4 µg/mL (≈ 10.9 µM)
- MIC (P. aeruginosa 143-3-03): 4 µg/mL (≈ 10.9 µM)
- MIC ([11]; Acinetobacter spp. H064200250 (OXA51), 2nd experiment, MIC read with alamar blue, read-out: MIC without PB, read with alamar blue): 16 µg/mL (≈ 43.7 µM)
- MIC [11, 18]: 32 µg/mL (≈ 87.3 µM)
- MIC [11, 19]: 16 µg/mL (≈ 43.7 µM)
- MIC (A. baumannii A329 [12]): 16 µg/mL (≈ 43.7 µM)
- MBC (A. baumannii A390): 32 µg/mL (≈ 87.3 µM)
- MBC (A. baumannii A473 [13]; 1st experiment): 4 µg/mL (≈ 10.9 µM)

Structure (SMILES): Cc1c(-c2cc(Cl)c(N)c(Cl)c2)ccn2c(=O)c(C(=O)O)cc(C3CC3)c12 [Compound 3, 8-(3,5-dichloro-4-amino-phenyl)-1-cyclopropyl-9-methyl-4-oxo-quinolizine-3-carboxylic acid]
- MIC ratio without/with polymyxin B (A. baumannii A401 [1]; A baumannii A 401, ratio MIC without PB to MIC + PB, PB 0.06 μg/ml, 2nd experiment): 128 µg/mL
- MIC (A. baumannii A401 [1]; 1st experiment): 8 µg/mL (≈ 19.8 µM)
- MIC (A. baumannii A401 [1]; 2nd experiment, visual reading): 16 µg/mL (≈ 39.7 µM)
- MBC (A. baumannii A329 [2]; 1st experiment): 16 µg/mL (≈ 39.7 µM)
- MBC (A. baumannii A329 [2]; 2nd experiment): 32 µg/mL (≈ 79.4 µM)
- MIC (A. baumannii A473 [14]; 1st experiment): 4 µg/mL (≈ 9.92 µM)
- MIC (A. baumannii A473 [14]; 2nd experiment, visual reading): 8 µg/mL (≈ 19.8 µM)
- MBC (A. baumannii A401 [3]; 2nd experiment): 16 µg/mL (≈ 39.7 µM)
- MBC (A. baumannii A401 [3]; 1st experiment): 4 µg/mL (≈ 9.92 µM)
- MIC ratio without/with polymyxin B (A. baumannii A472 [4]; A. baumannii A472, ratio MIC without PB to MIC + PB, PB […], 2nd experiment): ≥ 1020 µg/mL
- MIC (A. baumannii A472 [4]; 1st experiment): 32 µg/mL (≈ 79.4 µM)
- MIC (E. coli CTX-M-15): > 32 µg/mL
- MIC (A. baumannii A472 [15]): 32 µg/mL (≈ 79.4 µM)
- MIC (Pseudomonas ssp PER-1): 32 µg/mL (≈ 79.4 µM)
- MBC (A. baumannii A489 [5]; 1st experiment): 2 µg/mL (≈ 4.96 µM)
- MBC (A. baumannii A489 [5]; 2nd experiment): 4 µg/mL (≈ 9.92 µM)
- MBC [6, 16]: 16 µg/mL (≈ 39.7 µM)
- MBC [6, 17]: 8 µg/mL (≈ 19.8 µM)
- MIC (A. baumannii A 401): 8 µg/mL (≈ 19.8 µM)
- MIC (A. baumannii A489 [8]; 1st experiment): 4 µg/mL (≈ 9.92 µM)
- MIC (A. baumannii A489 [8]; 2nd experiment, visual reading): 4 µg/mL (≈ 9.92 µM)
- MIC [10]: 8 µg/mL (≈ 19.8 µM)
- MIC (P. aeruginosa 1388-3-02): 8 µg/mL (≈ 19.8 µM)
- MIC (E. coli 2906): > 32 µg/mL
- MIC (Klebsiella ssp KPC-3): 8 µg/mL (≈ 19.8 µM)
- MIC (P. aeruginosa 143-3-03): 4 µg/mL (≈ 9.92 µM)
- MIC [11, 18]: 16 µg/mL (≈ 39.7 µM)
- MIC [11, 19]: 8 µg/mL (≈ 19.8 µM)
- MIC (A. baumannii A329 [12]): 16 µg/mL (≈ 39.7 µM)
- MIC (A. baumannii J2; 1st experiment): 8 µg/mL (≈ 19.8 µM)
- MIC (A. baumannii J2; 2nd experiment, visual reading): 32 µg/mL (≈ 79.4 µM)
- MBC (A. baumannii A473 [13]; 1st experiment): 4 µg/mL (≈ 9.92 µM)
- MBC (A. baumannii A473 [13]; 2nd experiment): 8 µg/mL (≈ 19.8 µM)
